Where “and” joins values, the source holds several entries; their conditions need not be identical. Equal values may be shown once. Read-outs that look alike come from different tables or passages of the source.
Columns and labels:
CCRF-CEM = experiment: NCI cytotoxicity screen; assay type: cell-based, human
MOLT-4 = experiment: NCI cytotoxicity screen; assay type: cell-based, human
SR = experiment: NCI cytotoxicity screen; assay type: cell-based, human
EKVX = experiment: NCI cytotoxicity screen; assay type: cell-based, human
HOP-62 = experiment: NCI cytotoxicity screen; assay type: cell-based, human
HOP-92 = experiment: NCI cytotoxicity screen; assay type: cell-based, human
NCI-H226 = experiment: NCI cytotoxicity screen; assay type: cell-based, human
NCI-H23 = experiment: NCI cytotoxicity screen; assay type: cell-based, human
NCI-H322M = experiment: NCI cytotoxicity screen; assay type: cell-based, human
NCI-H460 = experiment: NCI cytotoxicity screen; assay type: cell-based, human; conditions: 10.0 μM one dose
NCI-H522 = experiment: NCI cytotoxicity screen; assay type: cell-based, human; conditions: 10.0 μM one dose
HCC-2998 = experiment: NCI cytotoxicity screen; assay type: cell-based, human
HCT-15 = experiment: NCI cytotoxicity screen; assay type: cell-based, human
HT29 = experiment: NCI cytotoxicity screen; assay type: cell-based, human; conditions: HT-29
SF-268 = experiment: NCI cytotoxicity screen; assay type: cell-based, human
SF-295 = experiment: NCI cytotoxicity screen; assay type: cell-based, human
SF-539 = experiment: NCI cytotoxicity screen; assay type: cell-based, human
SNB-75 = experiment: NCI cytotoxicity screen; assay type: cell-based, human; conditions: 10.0 μM one dose
U251 = experiment: NCI cytotoxicity screen; assay type: cell-based, human; conditions: U-251
LOX IMVI = experiment: NCI cytotoxicity screen; assay type: cell-based, human
MALME-3M = experiment: NCI cytotoxicity screen; assay type: cell-based, human
M14 = experiment: NCI cytotoxicity screen; assay type: cell-based, human
MDA-MB-435 = experiment: NCI cytotoxicity screen; assay type: cell-based, human
SK-MEL-28 = experiment: NCI cytotoxicity screen; assay type: cell-based, human
UACC-257 = experiment: NCI cytotoxicity screen; assay type: cell-based, human; conditions: 10.0 μM one dose
OVCAR-3 = experiment: NCI cytotoxicity screen; assay type: cell-based, human
OVCAR-5 = experiment: NCI cytotoxicity screen; assay type: cell-based, human
OVCAR-8 = experiment: NCI cytotoxicity screen; assay type: cell-based, human
SK-OV-3 = experiment: NCI cytotoxicity screen; assay type: cell-based, human; conditions: 10.0 μM one dose
ACHN = experiment: NCI cytotoxicity screen; assay type: cell-based, human
SN12C = experiment: NCI cytotoxicity screen; assay type: cell-based, human; conditions: 10.0 μM one dose; SN-12C
UO-31 = experiment: NCI cytotoxicity screen; assay type: cell-based, human
PC-3 = experiment: NCI cytotoxicity screen; assay type: cell-based, human; conditions: 10.0 μM one dose
DU-145 = experiment: NCI cytotoxicity screen; assay type: cell-based, human
HS 578T = experiment: NCI cytotoxicity screen; assay type: cell-based, human
BT-549 = experiment: NCI cytotoxicity screen; assay type: cell-based, human
T-47D = experiment: NCI cytotoxicity screen; assay type: cell-based, human; conditions: 10.0 μM one dose; T-47D
59 cancer cell lines = experiment: NCI cytotoxicity screen, full panel; assay type: cell-based, human; conditions: for TGI MG_MID / GI50: full panel mean-graph midpoint; for GI50: read-out: GI50 MG_MID
NCI/ADR-RES = experiment: NCI cytotoxicity screen; assay type: cell-based, human; conditions: Homo sapiens, five-dose
[1] = system: Leukemia subpanel tumor cell lines; experiment: NCI cytotoxicity screen, subpanel; assay type: cell-based, human; conditions: subpanel value, Leukemia
[2] = system: NSC lung cancer subpanel tumor cell lines; experiment: NCI cytotoxicity screen, subpanel; assay type: cell-based, human; conditions: subpanel value, NSC lung cancer
[3] = system: Colon cancer subpanel tumor cell lines; experiment: NCI cytotoxicity screen, subpanel; assay type: cell-based, human; conditions: subpanel value, Colon cancer
[4] = system: CNS cancer subpanel tumor cell lines; experiment: NCI cytotoxicity screen, subpanel; assay type: cell-based, human; conditions: subpanel value, CNS cancer
[5] = system: Ovarian cancer subpanel tumor cell lines; experiment: NCI cytotoxicity screen, subpanel; assay type: cell-based, human; conditions: subpanel value, Ovarian cancer
HL-60(TB) = experiment: cells; conditions: Homo sapiens

Compound: NS(=O)(=O)c1ccc(Cn2c(SCC(=O)NN=Cc3ccccc3O)nc3ccccc3c2=O)cc1 [Compound 6, 4-((2-((2-(2-(2-Hydroxybenzylidene)hydrazineyl)-2-oxoethyl)thio)-4-oxoquinazolin-3(4H)-yl)methyl)benzenesulfonamide]
- GI % (CCRF-CEM; 10.0 μM one dose): 77%
- GI % (MOLT-4; 10.0 μM one dose): 80%
- GI % (SR; 10.0 μM one dose): 76%
- GI % (EKVX; 10.0 μM one dose): 40%
- GI % (HOP-62; 10.0 μM one dose): 65%
- GI % (HOP-92; 10.0 μM one dose): 46%
- GI % (NCI-H226; 10.0 μM one dose): 43%
- GI % (NCI-H23; 10.0 μM one dose): 37%
- GI % (NCI-H322M; 10.0 μM one dose): 53%
- GI % (NCI-H460): 51%
- GI % (NCI-H522): 101%
- GI % (HCC-2998; 10.0 μM one dose, HCC-2998): 50%
- GI % (HCT-15; 10.0 μM one dose): 25%
- GI % (HT29; 10.0 μM one dose): 14%
- GI % (SF-268; 10.0 μM one dose): 62%
- GI % (SF-295; 10.0 μM one dose): 35%
- GI % (SF-539; 10.0 μM one dose): 46%
- GI % (SNB-75): 15%
- GI % (U251; 10.0 μM one dose): 57%
- GI % (LOX IMVI; 10.0 μM one dose): 84%
- GI % (MALME-3M; 10.0 μM one dose, MALME-3M): 41%
- GI % (M14; 10.0 μM one dose): 58%
- GI % (MDA-MB-435; 10.0 μM one dose): 29%
- GI % (SK-MEL-28; 10.0 μM one dose): 43%
- GI % (UACC-257): 30%
- GI % (OVCAR-3; 10.0 μM one dose, IGROV-3): 87%
- GI % (OVCAR-5; 10.0 μM one dose, IGROV-5): 32%
- GI % (OVCAR-8; 10.0 μM one dose): 56%
- GI % (SK-OV-3): 37%
- GI % (ACHN; 10.0 μM one dose): 28%
- GI % (SN12C): 44%
- GI % (UO-31; 10.0 μM one dose): 39%
- GI % (PC-3): 33%
- GI % (DU-145; 10.0 μM one dose): 28%
- GI % (HS 578T; 10.0 μM one dose, HS-578T): 29%
- GI % (BT-549; 10.0 μM one dose): 44%
- GI % (T-47D): 67%
- MG% (mean growth percent) (59 cancer cell lines; 10.0 μM one dose, 59 cell lines): 55.2% and 55.22%

Compound: COc1cc2ncnc(Nc3ccc(F)c(Cl)c3)c2cc1OCCCN1CCOCC1 [Gefitinib, reference compound]
- GI50 (CCRF-CEM; Homo sapiens): 5.01 µM
- GI50 (MOLT-4; Homo sapiens): 3.98 µM
- GI50 (SR; Homo sapiens): 3.16 µM
- GI50 (EKVX; Homo sapiens): 0.005 µM
- GI50 (HOP-62; Homo sapiens): 10 µM
- GI50 (HOP-92; Homo sapiens): 7.94 µM
- GI50 (NCI-H226; Homo sapiens): 15.8 µM
- GI50 (NCI-H23; Homo sapiens): 15.8 µM
- GI50 (NCI-H322M; Homo sapiens): 0.08 µM
- GI50 (HCC-2998; Homo sapiens, HCC 2998): 10 µM
- GI50 (HCT-15; Homo sapiens): 5.01 µM
- GI50 (HT29; Homo sapiens): 3.98 µM
- GI50 (SF-268; Homo sapiens): 7.94 µM
- GI50 (SF-295; Homo sapiens): 1.99 µM
- GI50 (SF-539; Homo sapiens): 10 µM
- GI50 (U251; Homo sapiens): 10 µM
- GI50 (LOX IMVI; Homo sapiens): 7.94 µM
- GI50 (MALME-3M; Homo sapiens, Malme-3M): 3.16 µM
- GI50 (M14; Homo sapiens): 5.01 µM
- GI50 (MDA-MB-435; Homo sapiens): 3.16 µM
- GI50 (SK-MEL-28; Homo sapiens): 0.31 µM
- GI50 (OVCAR-3; Homo sapiens, OVCAR-3): 5.01 µM
- GI50 (OVCAR-5; Homo sapiens, OVCAR-5): 10 µM
- GI50 (OVCAR-8; Homo sapiens): 10 µM
- GI50 (NCI/ADR-RES): 12.6 µM
- GI50 (ACHN; Homo sapiens): 0.2 µM
- GI50 (UO-31; Homo sapiens): 1.25 µM
- GI50 (DU-145; Homo sapiens): 2.51 µM
- GI50 (HS 578T; Homo sapiens, Hs-578T): 10 µM
- GI50 (BT-549; Homo sapiens): 7.94 µM
- GI50 ([1]; Homo sapiens): 2.6 µM
- GI50 [1]: 2.56 µM
- TGI [1]: 12.07 µM
- GI50 ([2]; Homo sapiens): 2.1 µM
- GI50 [2]: 2.05 µM
- TGI [2]: 13.86 µM
- GI50 ([3]; Homo sapiens): 5.2 µM
- GI50 [3]: 5.23 µM
- TGI [3]: 18.47 µM
- GI50 ([4]; Homo sapiens): 5.6 µM
- GI50 [4]: 5.64 µM
- TGI [4]: 19.62 µM
- GI50 ([5]; Homo sapiens): 3.3 µM
- GI50 [5]: 3.05 µM
- TGI [5]: 33.29 µM
- CC50 (59 cancer cell lines; Homo sapiens, read-out: LC50 MG_MID, full panel mean-graph midpoint): 95.6 µM
- TGI MG_MID (59 cancer cell lines): 14.3 µM
- TGI MG_MID (59 cancer cell lines; listed as gefitinib): 66.3 µM
- GI50 (59 cancer cell lines): 2.1 µM
- GI50 (59 cancer cell lines; listed as gefitinib): 7.7 µM
- GI50 (HL-60(TB)): 5.01 µM

From article PMC11702208 (RSC Advances, 2025)
